Reference: patent US20160303095A1, “METHODS OF TREATING HEPATITIS B VIRUS” (Gilead Sciences, Inc., priority 2015, published 2016)
pEC50, pIC50: −log10 of the molar value. Like-named read-outs stand apart in the source and are kept apart here.

What was measured:
[1] = molecular target: T1, KDM5C (Homo sapiens, UniProt P41229); test: Biochemical KDM inhibition assay (LANCE), KDM5C; conditions: read-out: Biochemical IC50 KDM 5C
T1 construct: host or cells: Sf9 cells
Procedure: (§1) Representative compounds were characterized for their inhibition of KDM5 using biotinylated histone substrates. Inhibition was measured in vitro (CEREP Poitier, Le Bois l'Evêque, France) following experimental conditions described in Table 2. Briefly, the test compound, reference compound or water (control) was mixed with about 2-20 ng of recombinant, Human enzymes expressed in Sf9 cells in a buffer containing 45 mM Hepes/Tris (pH 7), 5 μM FAS, 100 μM ascorbic acid, 10 μM 2-oxoglutarate, 0.01% Tween 20 and 0.01% BSA. Thereafter, the reaction was initiated by adding the biotin-labeled substrate, and the mixture was incubated for 10-30 min at room temperature. For basal control measurements, the enzyme was omitted from the reaction mixture. Following incubation the reaction was stopped by adding 1 mM EDTA. After 5 min, the anti-methyl histone antibody labeled with europium chelate and the Ulight streptavidine (Perkin Elmer Waltham, Mass.) were added. After 60 min more, the fluorescence transfer was measured at λex=320 nm and λem=620 and λem=665 nm using a microplate reader (Envision, Perkin Elmer) (LANCE). The enzyme activity was determined by dividing the signal measured at λem=665 nm by that measured at 620 nm (ratio).

[2] = molecular target: T2, KDM5D (Homo sapiens, UniProt Q9BY66); test: Biochemical KDM inhibition assay (LANCE), KDM5D; conditions: read-out: Biochemical IC50 KDM 5D
T2 construct: host or cells: Sf9 cells
Procedure: as §1

[3] = molecular target: T3, KDM4E (Homo sapiens, UniProt B2RXH2); test: Biochemical KDM inhibition assay (LANCE), KDM4E; conditions: read-out: Biochemical IC50 KDM 4E
T3 construct: host or cells: Sf9 cells
T3 sequence (B2RXH2 1-506): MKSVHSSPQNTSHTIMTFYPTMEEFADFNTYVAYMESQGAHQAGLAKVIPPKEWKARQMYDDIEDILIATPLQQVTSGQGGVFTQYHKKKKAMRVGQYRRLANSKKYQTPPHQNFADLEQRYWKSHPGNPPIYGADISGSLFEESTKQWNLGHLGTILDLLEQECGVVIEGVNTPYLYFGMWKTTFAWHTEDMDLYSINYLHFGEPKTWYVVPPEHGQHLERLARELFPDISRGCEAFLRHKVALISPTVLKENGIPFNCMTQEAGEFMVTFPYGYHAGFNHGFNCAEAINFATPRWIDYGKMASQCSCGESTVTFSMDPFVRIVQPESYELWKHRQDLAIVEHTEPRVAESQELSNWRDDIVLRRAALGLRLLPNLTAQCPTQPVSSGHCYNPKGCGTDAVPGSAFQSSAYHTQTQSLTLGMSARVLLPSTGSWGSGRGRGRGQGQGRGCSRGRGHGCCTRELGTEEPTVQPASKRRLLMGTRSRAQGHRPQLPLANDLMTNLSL

[4] = tested on: HBV; test: PHH screening protocol: HBsAg and HBeAg levels by MSD ELISA; assay type: cell-based, Hepatitis B Virus; conditions: for pEC50: Hepatitis B virus; for time dependency of anti HBV activity: PHH donor 8181 infected with patient virus 21p (GTA)
Procedure: HBV antiviral activity was assessed in primary human hepatocytes (PHH) in a 96-well format. PHH were (Life Technologies, Chicago, 11) plated on collagen coated tissue culture plates using Plating Media containing William's Medium E supplemented with 1% Penicillin/Streptomycin, 4 μg/mL human recombinant insulin, 2 mM glutamax, 15 mM Hepes, 1 μM dexamethasone and 5% fetal bovine serum (Life Technologies, Cat#A12176-01 Life Technologies, Chicago, Ill.). After a 4-hour incubation at 37° C., cells were switched to Maintenance Media (Cat#CM4000-A15564 Life Technologies, Chicago, Ill.) containing William's Medium E supplemented with 0.5% Penicillin/Streptomycin, 6.25 μg/mL human recombinant insulin, 6.25 μg/mL human transferrin, 6.25 ng/mL selenous acid, 1.25 mg/mL bovine serum albumin, 5.35 μg/mL linoleic acid, 2 mM glutamax, 15 mM Hepes, 0.1 μM dexamethasone, 2% fetal bovine serum, and 2% DMSO (Cat#D2650 Sigma, St. Louis, Mo.). On the next day, cells were infected with approximately 500 genome equivalent of selected HBV clinical isolates (21P (GTA), 32P (GTA), 91P (GTA), AD38 (GTD), 65P (GTD) or 30P (GTE); ProteoGenex, Culver City, Calif.) per cell in Maintenance Media supplemented with 4% PEG 8000 (Cat#V3011 Promega, Madison, Wis.). After 24 hour incubation cells were washed three times with William's Medium E and fed with fresh Maintenance Media. Small molecule inhibitors targeting KDMs were serially diluted in Maintenance Media and added to cells at 3 days post infection (p.i.). Media with compounds was replenished every 2-3 days. Media collected on various days was used for determination of HBsAg and HBeAg levels by MSD ELISA, and HBV RNA by qPCR. All data were converted into percentages of the untreated control and non-linear regression was performed to calculate EC50 or CC50 values.

[5] = read-out: HBeAg EC50, HBV-infected PHH
[6] = read-out: HBsAg EC50, HBV-infected PHH
[7] = read-out: HBeAg EC50, D 8, PHH donor 8181, virus 21p
[8] = read-out: HBeAg EC50, D 13, PHH donor 8181, virus 21p
[9] = read-out: HBeAg EC50, D 17, PHH donor 8181, virus 21p
[10] = read-out: HBeAg EC50, D 22, PHH donor 8181, virus 21p
[11] = read-out: HBeAg EC50, D 27, PHH donor 8181, virus 21p
[12] = read-out: HBsAg EC50, D 8, PHH donor 8181, virus 21p
[13] = read-out: HBsAg EC50, D 13, PHH donor 8181, virus 21p
[14] = read-out: HBsAg EC50, D 17, PHH donor 8181, virus 21p
[15] = read-out: HBsAg EC50, D 22, PHH donor 8181, virus 21p
[16] = read-out: HBsAg EC50, D 27, PHH donor 8181, virus 21p

T1 sequence (P41229 whole entry): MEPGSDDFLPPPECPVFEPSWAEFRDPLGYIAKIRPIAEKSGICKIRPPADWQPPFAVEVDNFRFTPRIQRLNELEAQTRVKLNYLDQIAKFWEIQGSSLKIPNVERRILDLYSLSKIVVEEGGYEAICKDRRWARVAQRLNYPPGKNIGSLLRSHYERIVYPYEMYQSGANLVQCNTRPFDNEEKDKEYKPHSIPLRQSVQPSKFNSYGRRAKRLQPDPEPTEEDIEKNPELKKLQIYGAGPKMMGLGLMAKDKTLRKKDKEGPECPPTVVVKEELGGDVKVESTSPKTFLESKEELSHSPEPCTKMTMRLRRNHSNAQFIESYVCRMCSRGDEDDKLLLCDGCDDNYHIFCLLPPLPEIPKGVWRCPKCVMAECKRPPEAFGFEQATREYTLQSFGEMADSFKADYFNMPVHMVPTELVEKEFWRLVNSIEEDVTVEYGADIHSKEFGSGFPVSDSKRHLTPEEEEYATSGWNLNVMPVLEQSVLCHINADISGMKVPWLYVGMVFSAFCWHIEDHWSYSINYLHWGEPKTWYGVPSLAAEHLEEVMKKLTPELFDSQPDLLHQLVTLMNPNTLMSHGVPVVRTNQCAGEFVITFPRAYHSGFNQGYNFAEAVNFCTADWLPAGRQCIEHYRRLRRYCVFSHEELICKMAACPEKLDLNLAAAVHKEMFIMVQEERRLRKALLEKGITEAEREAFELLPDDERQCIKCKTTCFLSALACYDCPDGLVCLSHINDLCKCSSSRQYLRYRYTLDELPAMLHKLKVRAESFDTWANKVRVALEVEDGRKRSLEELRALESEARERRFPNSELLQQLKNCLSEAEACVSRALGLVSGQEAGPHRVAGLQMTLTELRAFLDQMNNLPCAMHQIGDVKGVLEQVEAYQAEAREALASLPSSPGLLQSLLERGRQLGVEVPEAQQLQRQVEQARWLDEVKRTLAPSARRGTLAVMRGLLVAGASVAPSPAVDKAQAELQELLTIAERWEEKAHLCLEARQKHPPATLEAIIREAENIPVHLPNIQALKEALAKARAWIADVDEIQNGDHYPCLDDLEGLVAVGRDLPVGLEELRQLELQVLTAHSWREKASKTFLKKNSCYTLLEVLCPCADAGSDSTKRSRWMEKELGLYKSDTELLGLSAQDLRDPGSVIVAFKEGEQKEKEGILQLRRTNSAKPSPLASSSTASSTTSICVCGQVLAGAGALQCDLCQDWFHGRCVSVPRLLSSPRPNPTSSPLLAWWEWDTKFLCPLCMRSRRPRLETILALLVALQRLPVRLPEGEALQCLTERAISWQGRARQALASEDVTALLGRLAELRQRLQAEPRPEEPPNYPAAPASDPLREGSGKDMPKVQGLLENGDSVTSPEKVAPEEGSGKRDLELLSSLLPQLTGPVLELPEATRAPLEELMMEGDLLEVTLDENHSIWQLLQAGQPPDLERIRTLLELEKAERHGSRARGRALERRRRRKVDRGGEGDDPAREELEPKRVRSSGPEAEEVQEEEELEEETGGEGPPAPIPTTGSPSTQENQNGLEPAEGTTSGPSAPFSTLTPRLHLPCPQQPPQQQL
T2 sequence (Q9BY66 whole entry): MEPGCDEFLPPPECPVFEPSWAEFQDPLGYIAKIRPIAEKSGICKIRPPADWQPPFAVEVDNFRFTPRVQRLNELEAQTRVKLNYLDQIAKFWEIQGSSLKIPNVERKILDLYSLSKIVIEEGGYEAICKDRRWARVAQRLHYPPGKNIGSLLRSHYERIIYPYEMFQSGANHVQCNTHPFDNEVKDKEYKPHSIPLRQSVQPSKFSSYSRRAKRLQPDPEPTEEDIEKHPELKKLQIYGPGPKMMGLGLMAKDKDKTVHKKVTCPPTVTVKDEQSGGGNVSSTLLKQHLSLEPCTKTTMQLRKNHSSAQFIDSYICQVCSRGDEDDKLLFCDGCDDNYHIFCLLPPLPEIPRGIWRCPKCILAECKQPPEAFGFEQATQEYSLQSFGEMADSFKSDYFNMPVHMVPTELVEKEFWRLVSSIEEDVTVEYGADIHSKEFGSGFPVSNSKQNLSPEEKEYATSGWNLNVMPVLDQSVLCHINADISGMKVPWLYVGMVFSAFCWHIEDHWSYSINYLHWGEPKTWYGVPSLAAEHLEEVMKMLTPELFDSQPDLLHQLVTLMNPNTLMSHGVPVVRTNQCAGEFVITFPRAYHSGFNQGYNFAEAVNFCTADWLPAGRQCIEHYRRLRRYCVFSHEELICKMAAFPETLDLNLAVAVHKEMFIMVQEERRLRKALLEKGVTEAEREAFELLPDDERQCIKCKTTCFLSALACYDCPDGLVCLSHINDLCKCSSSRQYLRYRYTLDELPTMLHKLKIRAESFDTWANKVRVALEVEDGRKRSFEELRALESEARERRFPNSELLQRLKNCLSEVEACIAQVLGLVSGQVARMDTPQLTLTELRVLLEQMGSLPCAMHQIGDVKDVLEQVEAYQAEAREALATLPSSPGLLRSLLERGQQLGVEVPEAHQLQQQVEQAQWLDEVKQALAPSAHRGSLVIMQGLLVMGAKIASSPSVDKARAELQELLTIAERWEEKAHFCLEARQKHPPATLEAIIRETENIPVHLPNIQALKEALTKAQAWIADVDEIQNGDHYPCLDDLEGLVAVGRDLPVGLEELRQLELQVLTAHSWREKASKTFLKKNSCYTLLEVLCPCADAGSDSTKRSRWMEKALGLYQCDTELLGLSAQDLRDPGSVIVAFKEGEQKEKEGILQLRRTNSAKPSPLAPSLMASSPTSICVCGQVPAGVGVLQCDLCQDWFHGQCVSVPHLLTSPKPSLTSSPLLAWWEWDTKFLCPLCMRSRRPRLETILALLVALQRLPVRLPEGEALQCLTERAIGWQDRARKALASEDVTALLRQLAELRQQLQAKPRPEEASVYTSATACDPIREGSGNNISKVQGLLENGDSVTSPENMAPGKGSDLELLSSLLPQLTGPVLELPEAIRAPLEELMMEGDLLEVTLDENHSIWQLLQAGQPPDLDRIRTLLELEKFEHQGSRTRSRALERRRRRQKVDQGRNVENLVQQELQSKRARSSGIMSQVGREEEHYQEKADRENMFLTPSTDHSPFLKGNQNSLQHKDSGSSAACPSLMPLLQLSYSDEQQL

Structure (SMILES)	pIC50 [1]	pIC50 [2]	pIC50 [3]	pEC50 [4, 5]	pEC50 [4, 6]	pEC50 [4, 7]	pEC50 [4, 8]	pEC50 [4, 9]	pEC50 [4, 10]	pEC50 [4, 11]	pEC50 ([4]; read-out: HBeAg EC50, D 31, PHH donor 8181, virus 21p)	pEC50 [4, 12]	pEC50 [4, 13]	pEC50 [4, 14]	pEC50 [4, 15]	pEC50 [4, 16]	pEC50 ([4]; read-out: HBsAg EC50, D 31, PHH donor 8181, virus 21p)	time dependency of anti HBV activity [4]
CCN(CC)CCCCNCc1cc(C(=O)O)ccn1 [Example 18]	7.68	7.48	5.92	4.65	4.71	–	–	–	–	–	–	–	–	–	–	–	–	–
Cc1cc(Cl)ccc1COc1ccnn1-c1cc(C(=O)O)ccn1 [Example 11]	6.57	7.01	6.96	5.24	5.39	–	–	–	–	–	–	–	–	–	–	–	–	–
Nc1c(C(=O)O)ccnc1C(=O)O [Example 7, reference compound]	6.27	6.15	7.19	6.19	6.32	< 4.30	5.39	5.96	7.05	7.22	7.22	< 4.30	6.00	6.24	7.15	7.22	7.22	time dependent
O=C(O)c1ccncc1Nc1nn(CCN2CCC(F)(F)CC2)c2ccc(F)cc12 [Example 13]	7.07	7.19	6.17	5.22	5.40	–	–	–	–	–	–	–	–	–	–	–	–	–
N#CNC(=O)c1ccncc1Nc1nn(CCN2CCC(F)(F)CC2)c2ccc(F)cc12 [Example 14]	6.62	7.07	5.64	5.96	5.89	–	–	–	–	–	–	–	–	–	–	–	–	–
CCN(CCN(C)C)C(=O)CNCc1cc(C(=O)O)ccn1 [Example 9]	7.59	7.18	7.46	5.79	5.69	< 4.00	6.07	6.57	6.82	6.52	–	< 4.00	5.63	6.43	6.70	6.40	–	time dependent
